Experimental data: patent EP1060190B1, “NEW SALT FORMS OF (2E)- 5-AMINO-5- METHYLHEX-2- ENOIC ACID N-METHYL-N-((1R)-1-(N- METHYL-N-((1R)-1-(METHYLCARBAMOYL)-2- PHENYLETHYL)CARBAMOYL)-2- (2-NAPHTYL)ETHYL)AMIDE” (NOVO NORDISK A/S, priority 1998, dated 1999)
Counter-ions that a name gives are not always drawn.

Assay: Exposure of the anhydrous salt form to high humidity (solid form stability)
Type: physicochemical
Conditions: e.g. 10 weeks at 98% RH

In the case of CNC(=O)[C@@H](Cc1ccccc1)N(C)C(=O)[C@@H](Cc1ccc2ccccc2c1)N(C)C(=O)/C=C/CC(C)(C)N [compound I,hfum, compound I,hemi fumarate], the “Exposure of the anhydrous form to high humidity” value is reported as “produced the hydrous form”.
